What is called pIC50 is the negative decadic logarithm of the IC50, by convention in mol/L. The term GI50 denotes the concentration that inhibits growth by half.

pIC50: −log10 of the molar value. Read-outs that look alike come from different tables or passages of the source.

The subject of one series is HUVEC. The experiment in a line: HUVEC Cell Viability (CV) assay. The conditions noted are these: for pIC50: Homo sapiens, alamarBlue. Type of series: cell-based, human. The method, then: Cells are seeded at 10,000 cells/well in 96-well plates in HUVEC specific cell culture media. Cells are plated and cultured overnight (16-24 h) at 37° C. After the overnight culture, cells are washed and fed with the Assay Medium. Test compounds are applied and incubated with the cells for the designated time period, after which the cell viability is measured by alamarBlue method. […] The final DMSO concentration is 1%.
Fluorescence readings are recorded after the test compound and alamarBlue incubation. The excitation and emission wavelengths are 530 nm and 590 nm, respectively.
The percent of control is calculated by comparing the readings in the presence of the test compound to the vehicle control. Subsequently, the percent inhibition is calculated by subtracting the percent control activity from 100. IC50 values (concentration causing a half-maximal inhibition of the control value) are determined by non-linear regression analysis of the concentration-response curves using the Hill equation.
The reference compound used for this assay is Staurosporine.
Background: Resazurin is reduced to fluorescent resorufin, in cell work by metabolically active cells.

Series [1] relates to HUVEC (human umbilical venous endothelial cells). Description: HUVEC Tube Formation assay. It is filed as cell-based. Conditions: 18 h incubation, read-out: Tube formation GI50. The method, then: HUVEC (human umbilical venous endothelial cells, 1.5×10^4/well, ATCC CRL-1730) are placed in an earlier prepared 96-well plate. Test substance and/or vehicle is then added to each well in a final concentration of 0.4% DMSO in growth medium under an atmosphere of 5% CO2 at 37° C. After an 18 h incubation period, morphology of the endothelial cell tubes, which resemble a capillary-like network, are evaluated by a confocal high-content imaging system. Disruption (anti-angiogenesis) of total tube length is measured from each photograph and determined relative to the vehicle control group. […] Compounds are screened at 30, 3, 0.3, 0.03 and 0.003 μM (or μg/mL) in triplicate.

In series [2] the test system is SC-hCMs (stem cell cardiomyocytes). The experiment in a line: Cardiomyocyte assay (CRL), iPSC cardiomyocytes. It is filed as cell-based, human. The conditions noted are these: for effect on sodium spike amplitude vs. control (given as reduction for nilotinib and Example 39): 10 μM after 48 hours; for ΔΔ Na Spike Amp at 10 μM, 48 h (%): corrected by time matched controls. How it is done:
All measurements were performed at physiological temperature in a tissue culture incubator (37° C.; 5% CO2). Test article, positive controls and vehicle were added in a sterile tissue culture hood.
At least 10 h before compound addition SC-hCMs were exposed to the fresh culture medium. Before compound addition a one-minute recording of field potentials and impedance signals (baseline) was obtained. Test articles, vehicle and positive controls were added as a 2× concentration. One-minute recordings were obtained 0.5, 1, 2, 24 and 48 h after test article addition.
At the time of drug application, culture medium was added to an independent 96 well plate that was incubated in a tissue culture incubator for 48 h. This culture medium was used as the blank of the cTnI release assay.
After the 48 h exposure recording, 150 μL of each well was centrifuged to remove debris. The supernatant was collected and frozen for later cTnI content analysis using an ELISA plate according the manufacturer's instructions (Abcam, cat #ab200016).
Data was stored on the Charles River Laboratories computer network for off-line analysis. Data acquisition was performed using RTCA Cardio Software.
Data analysis was performed using RTCA Cardio Software, Microsoft Excel and Matlab scripts. Data were reported as mean±SEM.
The following field potential parameters were quantitated: Sodium Spike amplitude, Sodium Spike Rate, field potential duration (FPD), Bazett corrected field potential duration (FPDcB), and dysrhythmic events if present.
The following impedance parameters were quantitated: Cell Index, peak amplitude, relaxation from peak to 50% amplitude (Rel50) and twitch duration.
The sodium spike is the voltage signal produced by the propagation of the depolarizing wave (positive peak) and the local activation of sodium channels (negative peak). The sodium spike amplitude is the voltage difference (in […]) between the positive and negative peaks of the sodium spike. The Sodium Spike Rate is a measure of the rate of sodium spike generation (spikes/min) produced by the spontaneous beating of stem cell cardiomyocytes.
Abnormal rhythm activity was characterized by the presence of the following proarrhythmic markers:
Triggered activity: Triggered activity (TA) is activity characterized by the presence of voltage oscillations during the repolarization period (Early After Depolarizations, EADs) or after the repolarization is completed (Delayed After Depolarizations, DADs). They are produced by different mechanisms. EADs are due to reactivation of sodium and calcium currents due to prolongation of the action potential. DADs are due to transient releases of calcium from intracellular calcium stores. Both EADs and DADs can trigger action potentials (ectopic beats, EB).
Impedance instability: Impedance instability (II) consist of small oscillations of the impedance signal during the slower relaxation phase of the impedance twitch sometimes associated with small oscillations of the field potential (FPO). […] II informs about the possibility of drug-induced delayed repolarization setting the background where more robust proarrhythmic markers like EADs and DADs occur.
The SEM of the difference was calculated according to the following equation ΔΔSEM=(SEMtreatment2+SEMcontrol2)0.5.
The statistical analysis includes 1) a Student paired t-test to evaluate the changes respect to baseline and, 2) a multi-comparison analysis (Dunnett's test) of A % changes respect to time matched controls. An alpha probability of 0.05 was considered significant.

For the next series, the target named is hERG ion channel (Homo sapiens, UniProt Q12809). Description: hERG QPatch automated patch clamp. It is filed as cell-based. Conditions: CHO cells stably expressing hERG, QPatch 48, tail current. The method, then: hERG IC50 data was supplied by Metrion using their standard assay protocol briefly detailed below.
hERG ion channel screening was assayed in CHO cells stably expressing the human ether-á-go-go related gene, using the QPatch 48 automated, chip-based planar patch clamp device. A Gigaohm seal between the cell membrane and treated silicon surface was obtained and specific external and internal buffered solutions applied to cells prior to recording. Following baseline vehicle treatment, compounds were applied in increasing concentrations (8 pt CRC), effects on hERG tail current amplitudes were measured in two-minute recordings.

In series [3] the target is T1, recombinant human P450 enzyme 1A1 (Homo sapiens, UniProt P04798).
T1 construct: host or cells: Bacterial membranes (bactosomes), inferred from the named control preparation
T1 sequence (P04798 1-512): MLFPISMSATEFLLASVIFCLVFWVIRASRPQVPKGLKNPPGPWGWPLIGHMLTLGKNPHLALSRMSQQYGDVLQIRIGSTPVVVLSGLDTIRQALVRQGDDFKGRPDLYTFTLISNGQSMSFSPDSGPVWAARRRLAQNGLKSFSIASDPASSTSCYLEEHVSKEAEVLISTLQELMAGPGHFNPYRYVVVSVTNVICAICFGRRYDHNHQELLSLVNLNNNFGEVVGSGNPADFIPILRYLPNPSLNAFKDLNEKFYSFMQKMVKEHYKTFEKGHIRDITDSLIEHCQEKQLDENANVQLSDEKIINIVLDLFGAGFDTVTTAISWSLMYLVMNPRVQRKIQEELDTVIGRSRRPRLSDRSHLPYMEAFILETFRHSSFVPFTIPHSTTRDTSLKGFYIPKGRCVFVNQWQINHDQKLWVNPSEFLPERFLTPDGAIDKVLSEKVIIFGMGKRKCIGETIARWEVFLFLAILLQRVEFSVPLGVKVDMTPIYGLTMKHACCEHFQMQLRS
Description: Formation of reactive metabolites (glutathione adduct) by CYP1A1 with human liver cytosol. Conditions: 50 μM, human liver cytosol + recombinant CYP1A1, NADPH and GSH, 60 min. Type of series: in vitro ADME. The method, then: Investigations into the potential for test compound to form a reactive metabolite were performed using an adapted method detailed by De Lin et al. Briefly, test compound was pre-incubated (n=2; 50 μM substrate concentration) at 37° C. for 5 min with mixed-gender human liver cytosol (1 mg/mL total protein concentration) in 100 mM phosphate buffer (pH 7.4) with 5 mM MgCl2 in the presence of recombinant human P450 enzyme 1A1 (100 nM), in the presence and absence of 5 mM glutathione. At the end of the pre-incubation period, 2 mM NADPH was added to each sample and the mixture incubated at 37° C. for 60 min. Immediately following the addition of NADPH and after the 60 min incubation period, aliquots of each sample were mixed with MeCN (containing internal standard) to terminate the reaction and precipitate the proteins.
Samples were mixed, centrifuged and following appropriate dilution, supernatants were analysed by LC-MS utilising a high-resolution mass spectrometer to perform metabolite identification and characterisation analysis.

In series [4] the test system is HUVEC (human umbilical venous endothelial cells). Conditions: HUVEC tube formation reference; read-out: expected GI50 of reference compound; cited from earlier work.

hERG ion channel, sequence (Q12809 whole entry): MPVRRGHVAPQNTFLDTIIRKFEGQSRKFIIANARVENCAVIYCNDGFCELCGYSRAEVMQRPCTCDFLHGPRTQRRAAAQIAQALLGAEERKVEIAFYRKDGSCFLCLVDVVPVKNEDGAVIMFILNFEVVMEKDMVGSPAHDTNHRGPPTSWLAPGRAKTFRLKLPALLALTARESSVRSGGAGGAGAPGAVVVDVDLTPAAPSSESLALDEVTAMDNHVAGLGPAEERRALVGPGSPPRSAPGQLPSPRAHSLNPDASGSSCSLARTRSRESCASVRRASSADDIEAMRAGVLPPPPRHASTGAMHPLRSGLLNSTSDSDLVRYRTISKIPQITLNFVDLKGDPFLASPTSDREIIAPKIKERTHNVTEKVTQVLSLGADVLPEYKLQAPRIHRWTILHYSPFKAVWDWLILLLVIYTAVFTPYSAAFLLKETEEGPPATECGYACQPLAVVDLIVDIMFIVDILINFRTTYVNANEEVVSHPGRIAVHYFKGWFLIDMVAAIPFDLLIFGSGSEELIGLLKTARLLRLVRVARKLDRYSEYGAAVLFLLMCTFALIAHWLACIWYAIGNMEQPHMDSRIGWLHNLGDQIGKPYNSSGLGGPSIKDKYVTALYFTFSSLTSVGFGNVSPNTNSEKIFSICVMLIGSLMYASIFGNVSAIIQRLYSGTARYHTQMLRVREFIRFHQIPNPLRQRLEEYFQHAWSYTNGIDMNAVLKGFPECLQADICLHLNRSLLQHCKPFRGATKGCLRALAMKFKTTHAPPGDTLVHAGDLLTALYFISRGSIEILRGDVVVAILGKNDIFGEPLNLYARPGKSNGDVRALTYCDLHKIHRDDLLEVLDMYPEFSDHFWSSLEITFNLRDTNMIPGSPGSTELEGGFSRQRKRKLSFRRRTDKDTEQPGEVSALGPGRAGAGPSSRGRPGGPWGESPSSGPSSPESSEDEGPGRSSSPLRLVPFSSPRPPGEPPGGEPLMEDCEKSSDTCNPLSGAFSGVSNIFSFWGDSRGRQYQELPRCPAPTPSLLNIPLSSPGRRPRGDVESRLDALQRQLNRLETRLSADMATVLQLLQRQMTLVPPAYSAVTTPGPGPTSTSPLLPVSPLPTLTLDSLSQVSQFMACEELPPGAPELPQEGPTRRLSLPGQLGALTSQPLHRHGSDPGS

Take `Cc1ccc(C(=O)Nc2cc3n(n2)CCCC3(F)F)cc1C#Cc1cccnc1` [Example 97, N-(4,4-difluoro-6,7-dihydro-5H-pyrazolo[1,5-a]pyridin-2-yl)-4-methyl-3-[2-(3-pyridyl)ethynyl]benzamide]: the pIC50 in the series on HUVEC is 5.44. In addition, in series [1], the GI50 was more than 10 µM. In series [2], the “effect on sodium spike amplitude vs. control (given as reduction for nilotinib and Example 39)” value turned out to be 2.2%; the “Proarrhythmic Markers at 10 μM, 48 h” value is “Not Observed”; the “ΔΔ Na Spike Amp at 10 μM, 48 h (%)” value is 2.20%. The molecule further gave a negative-log IC50 (pIC50) on hERG ion channel of less than 5.00.
As for `Cc1ccc(C(=O)Nc2ccc(CN3CCN(C)CC3)c(C(F)(F)F)c2)cc1C#Cc1cnc2cccnn12` [Ponatinib, reference compound], the “formation of direct glutathione adduct” value in series [3] is reported as “forms a glutathione adduct”; in series [3] (listed as ponatinib) it was “forms a significant direct glutathione adduct”. Besides, the “effect on cell viability compared to the compounds of the invention” value in the series on HUVEC was approximately 10 fold. For the same molecule, the “cTnI release / secretion” value in series [2] (10 μM (48 h), relative to vehicle) is reported as “increased troponin (cTnI) secretion”.
With `Cc1ccc(C(=O)Nc2cn3c(n2)COCC3(C)C)cc1C#Cc1cccnc1` [Example 39, N-(5,5-dimethyl-6,8-dihydroimidazo[2,1-c][1,4]oxazin-2-yl)-4-methyl-3-[2-(3-pyridyl)ethynyl]benzamide], the pIC50 with HUVEC was 4.68. Besides, the GI50 in series [1] was more than 30 µM. For the same molecule, in series [2], the “effect on sodium spike amplitude vs. control (given as reduction for nilotinib and Example 39)” value amounted to 43%; the “Proarrhythmic Markers at 10 μM, 48 h” value is given as “Not Observed”; the “ΔΔ Na Spike Amp at 10 μM, 48 h (%)” value is −43.3%. On hERG ion channel, this molecule gave a negative logarithm of the IC50 (pIC50) of less than 5.00.
Take `Cc1ccc(C(=O)Nc2ccc(S(=O)(=O)O)c3cc(S(=O)(=O)O)cc(S(=O)(=O)O)c23)cc1NC(=O)c1cccc(NC(=O)Nc2cccc(C(=O)Nc3cc(C(=O)Nc4ccc(S(=O)(=O)O)c5cc(S(=O)(=O)O)cc(S(=O)(=O)O)c45)ccc3C)c2)c1` [Suramin]: in series [4], the GI50 is 15 µM.

Source of the values: US20230014226A1, “NEW COMPOUNDS AND METHODS” (BenevolentAI Bio Limited, priority 2019, published 2023).
